In ChEMBL document CHEMBL1151691, “Structure and biological activity of novel FN analogs as flowering inducers” (Bioorg Med Chem, 2008):
The source made the active and inactive calls. The rule behind the calls is not given here.

These molecules were tested on Lemna aequinoctialis (assay: Induction of flowering in Lemna paucicostata 151 after 10 days).
Type: functional, organism-based
CC/C=C\C[C@@H]1[C@H](CC(=O)CCCCCCCCC(=O)O)O[C@]2(O)CC13C(=CC2=O)NC[C@@H]3O was tested, and the Activity was “Active”.
For CCCCC[C@@H]1[C@H](CC(=O)CCCCCCCCC(=O)O)O[C@]2(O)CC13C(=CC2=O)NC[C@@H]3O, the Activity was “inactive”.
CC/C=C\C[C@@H]1[C@H](CC(=O)[C@H](O)CCCCCCCC(=O)O)O[C@]2(O)CC13C(=CC2=O)N(C)C[C@@H]3O was tested, and the Activity was “Active”.
With CC/C=C\C[C@@H]1[C@H](CC(=O)[C@@H](O)CCCCCCCC(=O)O)O[C@]2(O)CC13C(=CC2=O)N(C)C[C@@H]3O the Activity was “Active”.
In the case of CCCCC[C@@H]1[C@H](CC(=O)C(O)CCCCCCCC(=O)O)O[C@]2(O)CC13C(=CC2=O)NC[C@@H]3O (some centres not stated), the Activity is reported as “Active”.
In the case of CC/C=C\C[C@@H]1[C@H](CC(=O)[C@H](O)CCCCCCCC(=O)OC)O[C@]2(O)CC13C(=CC2=O)NC[C@@H]3O, the Activity is reported as “Active”.
With CC/C=C\C[C@@H]1[C@H](CC(=O)[C@@H](O)CCCCCCCC(=O)OC)O[C@]2(O)CC13C(=CC2=O)NC[C@@H]3O the Activity was “Active”.
